Laboratory results published in PubChem BioAssay (NCI).
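The concentration for 50% growth inhibition is given as GI50. The concentration for full growth arrest is given as TGI.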

Assays:
Assay in all cases: NCI anticancer screen, dose series, 384-well format
A549 NSCLC = test system: A549 NSCLC
SF-268 CNS = test system: SF-268 CNS
OVCAR-8 ovarian = test system: OVCAR-8 ovarian
LOX IMVI melanoma = test system: LOX IMVI melanoma
HCT-15 colon = test system: HCT-15 colon
NCI-H460 NSCLC = test system: NCI-H460 NSCLC
RXF 393 renal = test system: RXF 393 renal
IGROV1 ovarian = test system: IGROV1 ovarian
SR leukemia = test system: SR leukemia
HS 578T breast = test system: HS 578T breast
CAKI-1 renal = test system: CAKI-1 renal
MDA-MB-435 melanoma = test system: MDA-MB-435 melanoma
HOP-92 NSCLC = test system: HOP-92 NSCLC
ACHN renal = test system: ACHN renal
HOP-62 NSCLC = test system: HOP-62 NSCLC
SF-539 CNS = test system: SF-539 CNS
786-0 renal = test system: 786-0 renal
UACC-257 melanoma = test system: UACC-257 melanoma
DU-145 prostate = test system: DU-145 prostate
COLO 205 colon = test system: COLO 205 colon
RPMI-8226 leukemia = test system: RPMI-8226 leukemia
HCC-2998 colon = test system: HCC-2998 colon
SNB-75 CNS = test system: SNB-75 CNS
TK-10 renal = test system: TK-10 renal
MCF7 breast = test system: MCF7 breast
HT29 colon = test system: HT29 colon
PC-3 prostate = test system: PC-3 prostate
CCRF-CEM leukemia = test system: CCRF-CEM leukemia
NCI-H322M lung = test system: NCI-H322M lung
MDA-MB-468 breast = test system: MDA-MB-468 breast
BT-549 breast = test system: BT-549 breast
NCI/ADR-RES ovarian = test system: NCI/ADR-RES ovarian
MDA-MB-231 breast = test system: MDA-MB-231 breast
A498 renal = test system: A498 renal
NCI-H522 lung = test system: NCI-H522 lung
NCI-H23 lung = test system: NCI-H23 lung
SN12C renal = test system: SN12C renal
SW-620 colon = test system: SW-620 colon
SK-MEL-28 melanoma = test system: SK-MEL-28 melanoma
NCI-H226 lung = test system: NCI-H226 lung
OVCAR-4 ovarian = test system: OVCAR-4 ovarian
MOLT-4 leukemia = test system: MOLT-4 leukemia
HL-60(TB) leukemia = test system: HL-60(TB) leukemia
K-562 leukemia = test system: K-562 leukemia
OVCAR-3 ovarian = test system: OVCAR-3 ovarian
EKVX NSCLC = test system: EKVX NSCLC
UACC-62 melanoma = test system: UACC-62 melanoma
SF-295 CNS = test system: SF-295 CNS
OVCAR-5 ovarian = test system: OVCAR-5 ovarian
UO-31 renal = test system: UO-31 renal
MALME-3M melanoma = test system: MALME-3M melanoma
T-47D breast = test system: T-47D breast
SK-OV-3 ovarian = test system: SK-OV-3 ovarian
M14 melanoma = test system: M14 melanoma
SK-MEL-5 melanoma = test system: SK-MEL-5 melanoma
KM12 colon = test system: KM12 colon
SNB-19 CNS = test system: SNB-19 CNS

C[C@@H](CO)NC(=O)c1cc(-c2ccc(Cl)cc2)nn(-c2cnn(C)c2)c1=O
GI50 (A549 NSCLC): 17.7 µM | TGI (A549 NSCLC): 37.5 µM | GI50 (SF-268 CNS): 22.6 µM | TGI (SF-268 CNS): 70.7 µM | GI50 (OVCAR-8 ovarian): 23.7 µM | TGI (OVCAR-8 ovarian): 95.9 µM | GI50 (LOX IMVI melanoma): 17.1 µM | TGI (LOX IMVI melanoma): 30.9 µM | GI50 (HCT-15 colon): 27.1 µM | TGI (HCT-15 colon): > 100 µM | GI50 (NCI-H460 NSCLC): 13.8 µM | TGI (NCI-H460 NSCLC): 33.4 µM | GI50 (RXF 393 renal): 15.2 µM | TGI (RXF 393 renal): 53.4 µM | GI50 (IGROV1 ovarian): 18.3 µM | TGI (IGROV1 ovarian): 42.4 µM | GI50 (SR leukemia): 10.7 µM | TGI (SR leukemia): 22.7 µM | GI50 (HS 578T breast): 17.2 µM | TGI (HS 578T breast): 36.9 µM | GI50 (CAKI-1 renal): 17.7 µM | TGI (CAKI-1 renal): 49.2 µM | GI50 (MDA-MB-435 melanoma): 27.7 µM | TGI (MDA-MB-435 melanoma): 80.1 µM | GI50 (HOP-92 NSCLC): 10.2 µM | TGI (HOP-92 NSCLC): 43.7 µM | GI50 (ACHN renal): 15.5 µM | TGI (ACHN renal): 35.4 µM | GI50 (HOP-62 NSCLC): 17 µM | TGI (HOP-62 NSCLC): 40 µM | GI50 (SF-539 CNS): 19.4 µM | TGI (SF-539 CNS): 51.7 µM | GI50 ([…]-0 renal): 17.1 µM | TGI (786-0 renal): 61.3 µM | GI50 (UACC-257 melanoma): 24.9 µM | TGI (UACC-257 melanoma): 40.1 µM | GI50 (DU-145 prostate): 16.9 µM | TGI (DU-145 prostate): 36 µM | GI50 (COLO 205 colon): 23.7 µM | TGI (COLO 205 colon): 87.2 µM | GI50 (RPMI-8226 leukemia): 13.8 µM | TGI (RPMI-8226 leukemia): 27 µM | GI50 (HCC-2998 colon): 23.5 µM | TGI (HCC-2998 colon): 53.4 µM | GI50 (SNB-75 CNS): 25.8 µM | TGI (SNB-75 CNS): 93.1 µM | GI50 (TK-10 renal): 16.7 µM | TGI (TK-10 renal): 63.3 µM | GI50 (MCF7 breast): 15.8 µM | TGI (MCF7 breast): 29.4 µM | GI50 (HT29 colon): 25.9 µM | TGI (HT29 colon): > 100 µM | GI50 (PC-3 prostate): 24.4 µM | TGI (PC-3 prostate): 62.7 µM | GI50 (CCRF-CEM leukemia): 13.4 µM | TGI (CCRF-CEM leukemia): 29.7 µM | GI50 (NCI-H322M lung): 23.5 µM | TGI (NCI-H322M lung): 64 µM | GI50 (MDA-MB-468 breast): 16.7 µM | TGI (MDA-MB-468 breast): 32 µM | GI50 (BT-549 breast): 16.1 µM | TGI (BT-549 breast): 33.8 µM | GI50 (NCI/ADR-RES ovarian): 19.3 µM | TGI (NCI/ADR-RES ovarian): 44.4 µM | GI50 (MDA-MB-231 breast): 30 µM | TGI (MDA-MB-231 breast): > 100 µM | GI50 (A498 renal): 14.4 µM | TGI (A498 renal): 28.7 µM | GI50 (NCI-H522 lung): 16.9 µM | TGI (NCI-H522 lung): 31.2 µM | GI50 (NCI-H23 lung): 24.8 µM | TGI (NCI-H23 lung): 60.7 µM | GI50 (SN12C renal): 24.3 µM | TGI (SN12C renal): 78.6 µM | GI50 (SW-620 colon): 38.8 µM | TGI (SW-620 colon): > 100 µM | GI50 (SK-MEL-28 melanoma): 21.9 µM | TGI (SK-MEL-28 melanoma): 49.7 µM | GI50 (NCI-H226 lung): 16.8 µM | TGI (NCI-H226 lung): 35 µM | GI50 (OVCAR-4 ovarian): 25.5 µM | TGI (OVCAR-4 ovarian): 69.6 µM | GI50 (MOLT-4 leukemia): 1.87 µM | TGI (MOLT-4 leukemia): 3.63 µM | GI50 (HL-60(TB) leukemia): 16.5 µM | TGI (HL-60(TB) leukemia): 30.1 µM | GI50 (K-562 leukemia): 18.5 µM | TGI (K-562 leukemia): 34.3 µM | GI50 (OVCAR-3 ovarian): 22.6 µM | TGI (OVCAR-3 ovarian): 50.7 µM | GI50 (EKVX NSCLC): 27.3 µM | TGI (EKVX NSCLC): 77.9 µM | GI50 (UACC-62 melanoma): 11.5 µM | TGI (UACC-62 melanoma): 23.7 µM | GI50 (SF-295 CNS): 18.5 µM | TGI (SF-295 CNS): 41.2 µM | GI50 (OVCAR-5 ovarian): 32.2 µM | TGI (OVCAR-5 ovarian): > 100 µM | GI50 (UO-31 renal): 27.1 µM | TGI (UO-31 renal): > 100 µM | GI50 (MALME-3M melanoma): 13.4 µM | TGI (MALME-3M melanoma): 34.1 µM | GI50 (T-47D breast): 26.9 µM | TGI (T-47D breast): 67.9 µM | GI50 (SK-OV-3 ovarian): 27.3 µM | TGI (SK-OV-3 ovarian): 72.7 µM | GI50 (M14 melanoma): 27.1 µM | TGI (M14 melanoma): 60.5 µM | GI50 (SK-MEL-5 melanoma): 12.6 µM | TGI (SK-MEL-5 melanoma): 25.3 µM | GI50 (KM12 colon): 35.2 µM | TGI (KM12 colon): > 100 µM | GI50 (SNB-19 CNS): 27.8 µM | TGI (SNB-19 CNS): 88.5 µM
